Assay results: patent EP0393512A1, “New 1,3-dioxolane-2-yl derivatives of 2-picolylamine” (J. URIACH & CIA. S.A., priority 1989, dated 1990)
Like-named read-outs stand apart in the source and are kept apart here. Blank lines part the entries; values can stand above or below the molecule they belong to.

Experiments:
[1] = test system: platelet aggregation induced by PAF; assay: Inhibition of platelet aggregation induced by PAF (rabbit platelet rich plasma, Born nephelometric technique); type: cell-based, New Zealand albino rabbits; details: concentration needed to inhibit platelet aggregation by 50%, PAF (C₁₈) 16 nM final, read-out: IC₅₀
Procedure: Inhibition of platelet aggregation induced by PAF.
The blood is obtained by cardiac puncture of male New Zealand albino rabbits (between 2 and 2.5 Kg of weight) and coagulation is prevented by adding 1 part of 3.16% sodium citrate dihydrate in 9 parts of blood. The platelet rich plasma (PRP) is prepared by blood centrifugation at 250xg for 10 min. at 4°C and it is diluted with platelet poor plasma (PPP) by additional centrifugation at 3000xg for 10 min. The amount of platelets is adjusted to […]. The platelet aggregation induced by PAF (C₁₈; prepared in our laboratory) (16 nM, final) is determined by the Born nephelometric technique (J. Physiol., 1962, 162 67) using a aggregometer Chrono-log 500.
The activities of the inhibitors are expressed as IC₅₀, that is to say the concentration of the drug needed to inhibit the platelet aggregation by 50%.

[2] = test system: hypotension induced by PAF; assay: Inhibition of the hypotensive effect induced by PAF in normotense rats; type: in vivo, Sprage Dawley rats; details: Rattus norvegicus, iv; anesthetized male rats; compound given through the femoral vein 3 min before PAF (0.5 mcg/Kg, i.v.); average arterial pressure; read-out: IC₅₀
Procedure: Inhibition of the hypotensive effect induced by PAF in normotense rats. Male Sprage Dawley rats, of 180-220 g of weight, anesthetized with sodium pentobarbital (50 mg/Kg, i.p. 1 mL/100 g) have been used. In order to measure the average arterial pressure, a polyethylene catheter is introduced into the carotid artery. The arterial pressure is recorded with the help of a transducer connected with a R611 Beckman polygraph. The tested compounds are administered through the femoral vein 3 min before the injection of PAF (0.5 mcg/Kg, i.v.).

SMILES: CCCCCCCCCCCCCCCCCC1COC(COC(=O)N(Cc2cccc[n+]2CC)C(C)=O)O1.[I-] (centres unmarked) [Compound 3, 2-[N-Acetyl-N-[((5-heptadecyl-1,3-dioxolan-2-yl)methoxy)carbonyl]aminomethyl]-1-ethylpyridinium iodide]
- IC50 ([1]; Oryctolagus cuniculus): < 50 nM
- ED50 [2]: 0.074 mg/kg

SMILES: CCCCCCCCCCCCCCCCOCC1COC(COC(=O)N(Cc2ccccn2)C(C)=O)O1.Cl (centres unmarked) [Compound 6, 2-[N-Acetyl-N-[((5-hexadecyloxymethyl-1,3-dioxolane-2-yl)methoxy)carbonyl]aminomethyl] pyridine hydrochloride]
- IC50 ([1]; Oryctolagus cuniculus): 4000 nM
- ED50 [2]: > 5 mg/kg

SMILES: CCCCCCCCCCCCCCCCOCC1COC(COC(=O)N(Cc2cccc[n+]2C)C(C)=O)O1.[I-] (centres unmarked) [Compound 7, 2-[N-Acetyl-N-[((5-hexadecyloxymethyl-1,3-dioxolane-2-yl)methoxy)carbonyl]aminomethyl]-1-methylpyridinium iodide]
- IC50 ([1]; Oryctolagus cuniculus): 1000 nM
- ED50 [2]: 0.32 mg/kg

SMILES: CCCCCCCCCCCCCCCCOCC1COC(COC(=O)N(Cc2cccc[n+]2CC)C(=O)OCC)O1.[I-] (centres unmarked) [Compound 11, 2-[N-Ethoxycarbonyl-N-[((5-hexadecyloxymethyl-1,3-dioxolane-2-yl)methoxy)carbonyl]aminomethyl]-1-ethylpyridinium iodide]
- IC50 ([1]; Oryctolagus cuniculus): 140 nM
- ED50 [2]: 0.095 mg/kg

SMILES: CCCCCCCCCCCCCCCNC(=O)OCC1COC(COC(=O)N(Cc2cccc[n+]2CC)C(C)=O)O1.[I-] (centres unmarked) [Compound 20, 2-[N-Acetyl-N-[((5-pentadecylcarbamoyloxymethyl-1,3-dioxolane-2-yl)methoxy)carbonyl]aminomethyl]-1-ethylpyridinium iodide]
- IC50 ([1]; Oryctolagus cuniculus): < 50 nM
- ED50 [2]: 0.093 mg/kg

SMILES: CCCCCCCCCCCCCCCCCNC(=O)OCC1COC(COC(=O)N(Cc2ccccn2)C(C)=O)O1 (centres unmarked) [Compound 22, 2-[N-Acetyl-N-[((5-heptadecylcarbamoyloxymethyl-1,3-dioxolane-2-yl)methoxy)carbonyl]aminomethyl] pyridine]
- IC50 ([1]; Oryctolagus cuniculus): < 50 nM
- ED50 [2]: < 0.05 mg/kg

The next lines start with results.

- IC50 ([1]; Oryctolagus cuniculus): < 50 nM
SMILES: CCCCCCCCCCCCCCCCOCC1COC(COC(=O)N(Cc2cccc[n+]2CC)C(C)=O)O1.[I-] (centres unmarked) [Compound 8, 2-[N-Acetyl-N-[((5-hexadecyloxymethyl-1,3-dioxolane-2-yl)methoxy)carbonyl]aminomethyl]-1-ethylpyridinium iodide]
- ED50 [2]: < 0.05 mg/kg

- IC50 [1]: < 50 nM
SMILES: CCCCCCCCCCCCCCCCOCC1COC(COC(=O)N(Cc2cccc[n+]2CC)C(C)=O)O1.[Cl-] (centres unmarked) [Compound 9, 2-[N-Acetyl-N-[((5-hexadecyloxymethyl-1,3-dioxolane-2-yl)methoxy)carbonyl]aminomethyl]-1-ethylpyridinium chloride]
- ED50 [2]: < 0.05 mg/kg

- IC50 ([1]; Oryctolagus cuniculus): 110 nM
SMILES: CCCCCCCCCCCCCCCCCCOCC1COC(COC(=O)N(Cc2cccc[n+]2CC)C(C)=O)O1.[I-] (centres unmarked) [Compound 14, 2-[N-Acetyl-N-[((5-octadecyloxymethyl-1,3-dioxolane-2-yl)methoxy)carbonyl]aminomethyl]-1-ethylpyridinium iodide]
- ED50 [2]: < 0.05 mg/kg

- IC50 ([1]; Oryctolagus cuniculus): 150 nM
SMILES: CCCCCCCCCCCCCCOCC1COC(COC(=O)N(Cc2cccc[n+]2CC)C(C)=O)O1.[I-] (centres unmarked) [Compound 17, 2-[N-Acetyl-N-[((5-tetradecyloxymethyl-1,3-dioxolane-2-yl)methoxy)carbonyl]aminomethyl]-1-ethylpyridinium iodide]
- ED50 [2]: 0.2 mg/kg
